Data from patent US20190033294A1, “METHODS OF SCREENING DRUGS FOR CANCER TREATMENT USING CELLS GROWN ON A FIBER-INSPIRED SMART SCAFFOLD” (UNIVERSITY OF SOUTH FLORIDA, priority 2016, published 2019).
Where a name gives a salt, the structure may show the parent alone. Read-outs that look alike come from different tables or passages of the source. Starred links: 1 amine or outer side, 2 acyl side, 3 side chain; linkers in the order of their positions; H or OH if unused. Positions of bridges follow the written chain, without caps; N, C: chain ends. Non-standard residues stand in square brackets, D forms with d. Residues, ends and D or L forms follow the SMILES beside them. Chains are numbered I, II in the order given. Actinocin(9to1) = Cc1c2oc3c(C)ccc(C(=O)[*:1])c3nc-2c(C(=O)[*:2])c(N)c1=O; NMeV = CN[C@H](C(=O)O)C(C)C; Sar = CNCC(=O)O

Key:
HT-29 tumoroids = test: CellTiter-Glo viability, tumoroids on 3D fibrous scaffold; details: scaffold culture; nine drugs at 0.1-20 μM, 72 hours
Procedure: HT-29 cells were cultured in the 3D fibrous scaffold from day 1 to day 7, at which point the nine FDA-approved anticancer drugs were individually added to the cells at concentrations of 0.1, 1, 10, and 20 μM. The cells were incubated for an additional 72 hours, at which point viability of the cells was quantitated using Celltiter-Glo assay (Promega) according to the manufacturer's protocol. Raw luminescence values of the treated groups were normalized to the average of the untreated controls and graphed in GraphPad Prism.
HT-29 cells were either grown in the standard 2-dimensional (2D) monolayer culture or in a 3-dimensional (3D) culture system using a novel fibrous scaffold. […] The monolayer cells and the 3D tumoroids were independently treated with increasing concentrations of nine FDA approved anti-cancer drugs. After 72 hours post-treatment a Presto Blue Cell Viability Assay (for monolayer) and CellTiter-Glo Viability Assay (for tumoroids) were used to quantitate the drug-induced cell death. The drug treated viability readings were normalized to the viability readings from untreated control.

HT-29 cells = test: Presto Blue cell viability, 2D monolayer; details: monolayer culture; nine drugs at 0.1-20 μM, 72 hours
Procedure: HT-29 cells were cultured in 2D monolayer for 24 hours. After 24 hours, the nine FDA-approved anticancer drugs were individually added to the cells at concentrations of 0.1, 1, 10, and 20 μM, and the cells were incubated for 72 hours, at which point viability of the cells was quantitated using Presto Blue assay (Life Technologies) according to the manufacturer's protocol. Raw fluorescence values of the treated groups were normalized to the average of the control and graphed in GraphPad Prism.
HT-29 cells were cultured in 2D monolayer for 24 hours. After 24 hours, the nine FDA-approved anticancer drugs were individually added to the cells at concentrations of 0.1, 1, 10, and 20 μM, and the cells were incubated for 72 hours, at which point viability of the cells was quantitated using Presto Blue assay (Life Technologies) according to the manufacturer's protocol. Raw fluorescence values of the treated groups were normalized to the average of the untreated controls and graphed in GraphPad Prism.
HT-29 cells were either grown in the standard 2-dimensional (2D) monolayer culture or in a 3-dimensional (3D) culture system using a novel fibrous scaffold. […] The monolayer cells and the 3D tumoroids were independently treated with increasing concentrations of nine FDA approved anti-cancer drugs. After 72 hours post-treatment a Presto Blue Cell Viability Assay (for monolayer) and CellTiter-Glo Viability Assay (for tumoroids) were used to quantitate the drug-induced cell death. The drug treated viability readings were normalized to the viability readings from untreated control. The percent viability was used to calculate the IC50 values of all the nine drugs in HT-29 cells.

MCF-7/dox tumoroids = test: Presto-blue cell viability, tumoroids on FiSS scaffold
Procedure: (§4) (A) MCF-7 and MCF-7/dox cells were cultured on the scaffold for 6 days and then visualized using Nuc-blue. (B) MCF-7 and MCF-7/dox cells were cultured on or on scaffold for 6 days and then cells were treated with increasing concentration of Doxorubicin. Forty-eight hrs post-treatment, cell viability was analyzed using presto-blue as per manufacturer's instructions. The % cell death was analyzed and the IC50 calculated using Graph Pad Prism. Data are represented as Mean±SEM of three independent experiments performed in triplicates (*p<0.05).
(§5) MCF-7 and MCF-7/dox cells were cultured on monolayer or on scaffold in normoxia or hypoxia for 6 days. At the end of culture period, the monolayer cells and tumoroids were treated with increasing concentration of Actinomycin D. Forty-eight hrs post-treatment, cell viability was analyzed using presto-blue as per manufacturer's instructions. The % cell death was analyzed and the IC50 calculated using Graph Pad Prism. Data are represented as Mean±SEM of three independent experiments performed in triplicates (*p<0.05).
(§6) To conduct a high through put screening for compounds that induce cell death in breast cancer, the FDA-approved Oncology Diversity set was obtained from NCI in 96 well plate format with each well containing 20 μl of 10 mM drug stock. All different cell lines were cultured either in regular 96 wells plate without scaffold (served as monolayer) and with FiSS (scaffold culture) in complete medium. For scaffold culture, 75% medium was carefully removed and replaced with 150 μl of fresh medium every alternate day. After five/six days of scaffold culture, cells were stained with NucBlue (Fisher Scientific) to check if tumoroids had formed. Drugs were added in triplicates with varying concentrations. The cells were incubated for 72 hrs in a humidified atmosphere under 5% CO2 at 37° C., then cell viability was measured using Presto-blue (Fisher Scientific).

MCF-7 tumoroids = test: as above
Procedure: as §4, §5, §6

[1] = test system: CD44highCD24low cells in MCF-7 tumoroids; test: Flow cytometry of CD44highCD24low stem-like population in tumoroids; assay type: cell-based, human; details: 48 hr treatment, compared to untreated controls
Procedure: (§1) MCF-7 and MCF-7/dox were allowed to form tumoroids on scaffold for 6 days following which they were exposed to Actinomycin D for 24 hrs. At the end of 24 hrs the tumoroids were dissociated and processed for either western blotting (A) or real-time RT-PCR (B). Sox2 protein and transcript levels were analyzed and normalized to HPRT (C) Second generation MCF-7 tumoroids were cultured in a 96 well plate for 6 days. Tumoroids were treated with increasing concentrations of Actinomycin D on day 4 in groups of 4 wells. After a 48 hr treatment, cell viability was assayed using Cell Titer Glo(Promega) on day 6. Viability was calculated as a percent of control untreated wells and graphed using Graph Pad Prism software. (D) Tumoroids were treated with Actinomycin D for 48 hr. Following treatment tumoroids were dissociated and cells were co-stained using FITC conjugated CD44 antibody and Alexa Fluor-647 conjugated CD24 antibody. CD44^highCD24^low stem-like populations in MCF7 tumoroids were assessed by flow cytometer. Data was collected using a BD FACS Canto 2 flow cytometer.
To further investigate the potential of the FiSS for use in cancer drug discovery by characterizing the BCSCs within the tumoroids, MCF-7 cells were seeded onto scaffolds in 6 well plates at 240,000 cells per well. Cells were cultured for 6 days in RPMI media to form primary tumoroids. […]

MCF-7/dox cells = test: Presto-blue cell viability, monolayer culture; details: for potency in high throughput screening: NCI Oncology set, 4 point log-dose 0.1 to 100 μM, 72 hrs
Procedure: (§7) (B) MCF-7 and MCF-7/dox cells were cultured on or on scaffold for 6 days and then cells were treated with increasing concentration of Doxorubicin. Forty-eight hrs post-treatment, cell viability was analyzed using presto-blue as per manufacturer's instructions. The % cell death was analyzed and the IC50 calculated using Graph Pad Prism. Data are represented as Mean±SEM of three independent experiments performed in triplicates (*p<0.05).
(§8) (A) MCF-7 and (B) MCF-7/dox cells were cultured on monolayer and then treated with increasing concentration of compounds from NCI Approved Oncology Drugs Set VII. Forty-eight hrs post-treatment, cell viability was analyzed using presto-blue as per manufacturer's instructions. The % cell death was analyzed and the IC50 calculated using Graph Pad Prism. Data are represented as Mean of experiments performed in triplicates.
(§9) To conduct a high through put screening for compounds that induce cell death in breast cancer, the FDA-approved Oncology Diversity set was obtained from NCI in 96 well plate format with each well containing 20 μl of 10 mM drug stock. All different cell lines were cultured either in regular 96 wells plate without scaffold (served as monolayer) and with FiSS (scaffold culture) in complete medium. […] Drugs were added in triplicates with varying concentrations. The cells were incubated for 72 hrs in a humidified atmosphere under 5% CO2 at 37° C., then cell viability was measured using Presto-blue (Fisher Scientific). […] MCF-7 ad MCF-7/dox were used in a monolayer in a 96 well plate, and then treated with a NCI Oncology diversity set containing FDA-approved anti-cancer drugs. Each drug was used in a 4 point log-dose from 0.1 to 100 μM. Untreated cells were used as control and the cell death was estimated at the end of 72 hrs post-treatment.

MCF-7 cells = test: Presto-blue cell viability, monolayer culture; details: for potency in high throughput screening: NCI Oncology set, 4 point log-dose 0.1 to 100 μM, 72 hrs
Procedure: as §7, §8, §9

BT474 cells = test: Presto-blue cell viability, breast cancer cell panel; details: read-out: BT474 (IC50); Table 1, validation of hits in breast cancer cell panel
Procedure: (§10) All different cell lines were cultured either in regular 96 wells plate without scaffold (served as monolayer) and with FiSS (scaffold culture) in complete medium. For scaffold culture, 75% medium was carefully removed and replaced with 150 μl of fresh medium every alternate day. After five/six days of scaffold culture, cells were stained with NucBlue (Fisher Scientific) to check if tumoroids had formed. Drugs were added in triplicates with varying concentrations. The cells were incubated for 72 hrs in a humidified atmosphere under 5% CO2 at 37° C., then cell viability was measured using Presto-blue (Fisher Scientific).

[2] = test system: Second generation MCF-7 tumoroids; test: Cell Titer Glo viability of second generation tumoroids; assay type: cell-based, human; details: 48 hr treatment
Procedure: as §1

MDA-MB-231 cells = test: Presto-blue cell viability, breast cancer cell panel; details: read-out: MDA-MB-231 (IC50); Table 1, validation of hits in breast cancer cell panel
Procedure: as §10

[3] = test system: Sox2 in MCF-7/dox tumoroids; test: Sox2 expression in tumoroids after drug treatment (western blot / RT-PCR); assay type: cell-based, human
Procedure: as §1
(§2) MCF-7 and MCF-7/dox cells were seeded as monolayer and 3D tumoroid cultures in 96 well plates. […] Collagenase was used to detach the cells from the plate/scaffold platform. The cell pellet was resuspended in RIPA buffer and vortexed for 30 min followed by centrifugation at 4° C. at 13000 rpm to collect the protein extract. Protein content was determined by using BCA method and followed for western blot procedure. Antibodies for Nanog, Oct 4a, Sox2, and GAPDH/HPRT were obtained from Cell Signaling.
(§3) To determine the effects of Actinomycin D on the Sox2 protein levels in both MCF-7 and MCF-7/dox cell lines, MCF7 wt and MCF7-dox cells were seeded as monolayer and 3D tumoroid cultures (both in controls and cobalt chloride (CoCl2) scaffold cultures) in 96 well plates. […] Collagenase was used to detach the cells from the plate/scaffold platform. The cell pellet was then dissolved in trizol and RNA was isolated. RT-PCR was performed using 2 step process namely 1) cDNA synthesis using DNAase-1 treated RNA and 2) PCR was performed using primers of the gene of interest. […] The decrease in Sox2 expression was 2 fold in both the cell lines tested when compared to the control untreated tumoroids (2.05 vs. 0.75 pixel density in MCF-7 and 1.05 vs. 0.5 pixel density in MCF-7/dox) (FIG. 8B). […] Actinomycin D targets and down-regulates the expression of Sox2 resulting in depletion of stem-like cell population, which hampers the breast cancer cell's ability to initiate spheroids.

Sox2 in MCF-7 tumoroids = test: as above; assay type: cell-based, human
Procedure: as §1, §2, §3

[4] = read-out: MCF7-DOX (IC50), Table 1, validation of hits in breast cancer cell panel
[5] = read-out: MCF7-WT (IC50), Table 1, validation of hits in breast cancer cell panel

Compound: Nc1nc2nc[nH]c2c(=S)[nH]1 [6-thioguanine]
- rank as inhibitor of HT-29 cell viability (HT-29 tumoroids): least potent inhibitors
- rank as inhibitor of HT-29 cell viability (HT-29 cells): least potent inhibitors

Compound: Cc1c2oc3c(C)ccc(C(=O)N[C@@H]4C(=O)N[C@H](C(C)C)C(=O)N5CCC[C@H]5C(=O)N(C)CC(=O)N(C)[C@@H](C(C)C)C(=O)O[C@@H]4C)c3nc-2c(C(=O)N[C@@H]2C(=O)N[C@H](C(C)C)C(=O)N3CCC[C@H]3C(=O)N(C)CC(=O)N(C)[C@@H](C(C)C)C(=O)O[C@@H]2C)c(N)c1=O [Actinomycin D] (I: T[dV]P[Sar][NMeV] / II: T[dV]P[Sar][NMeV]; ester I:1-I:C, II:1-II:C; linker I:N-II:N via Actinocin(9to1))
- IC50 (MCF-7/dox tumoroids; MCF-7/dox tumoroids on scaffold, hypoxic conditions (CoCl2)): 2240 ± 460 nM
- IC50 (MCF-7/dox tumoroids; MCF-7/dox tumoroids on scaffold, normoxia, 6 days culture, 48 hrs treatment): 1660 ± 60 nM
- IC50 (MCF-7 tumoroids; MCF-7 tumoroids on scaffold, hypoxic conditions (CoCl2)): 1040 ± 70 nM
- IC50 (MCF-7 tumoroids; MCF-7 tumoroids on scaffold, normoxia, 6 days culture, 48 hrs treatment): 780 ± 250 nM
- CD44highCD24low population [1]: decreased
- IC50 (MCF-7/dox cells; MCF-7/dox monolayer, 48 hrs post-treatment, mean±SEM): 37 ± 21 nM
- potency in high throughput screening (MCF-7/dox cells; MCF-7/dox monolayer): high potency
- IC50 (MCF-7/dox cells; [4]): 50 ± 18 nM
- IC50 (MCF-7 cells; MCF-7 monolayer, 48 hrs post-treatment, mean±SEM): 70 ± 6 nM
- potency in high throughput screening (MCF-7 cells; MCF-7 monolayer): high potency
- IC50 (MCF-7 cells; [5]): 50 ± 10 nM
- IC50 (BT474 cells): 240 ± 30 nM
- IC50 [2]: 29 nM
- IC50 (MDA-MB-231 cells): 30 ± 10 nM
- Sox2 expression ([3]; MCF-7/dox tumoroids treated 24 hrs at concentration based on IC50, untreated control 1.05): 0.5 pixel density
- decrease in Sox2 expression ([3]; MCF-7/dox tumoroids vs control untreated tumoroids): 2 fold
- Sox2 expression (Sox2 in MCF-7 tumoroids; MCF-7 tumoroids treated 24 hrs at concentration based on IC50, untreated control 2.05): 0.75 pixel density
- decrease in Sox2 expression (Sox2 in MCF-7 tumoroids; MCF-7 tumoroids vs control untreated tumoroids): 2 fold

Compound: CO[C@@]12[C@H](COC(N)=O)C3=C(C(=O)C(C)=C(N)C3=O)N1C[C@@H]1N[C@@H]12 [Mitomycin C]
- potency in high throughput screening (MCF-7/dox cells; MCF-7/dox monolayer): high potency
- IC50 (MCF-7/dox cells; [4]): 120 ± 10 nM
- potency in high throughput screening (MCF-7 cells; MCF-7 monolayer): high potency
- IC50 (MCF-7 cells; [5]): 170 ± 60 nM
- IC50 (BT474 cells): 30 ± 4 nM
- IC50 (MDA-MB-231 cells): 30 ± 10 nM

Compound: N.N.[Cl][Pt][Cl] [cisplatin]
- rank as inhibitor of HT-29 cell viability (HT-29 tumoroids): least potent inhibitors
- rank as inhibitor of HT-29 cell viability (HT-29 cells): least potent inhibitors

Compound: Nc1ccn([C@@H]2O[C@H](CO)[C@@H](O)[C@@H]2O)c(=O)n1 [cytarabine]
- rank as inhibitor of HT-29 cell viability (HT-29 tumoroids): least potent inhibitors
- rank as inhibitor of HT-29 cell viability (HT-29 cells): least potent inhibitors

Compound: COc1cccc2c1C(=O)c1c(O)c3c(c(O)c1C2=O)C[C@@](O)(C(C)=O)C[C@@H]3O[C@H]1C[C@H](N)[C@H](O)[C@H](C)O1 [daunorubicin (hydrochloride)]
- rank as inhibitor of HT-29 cell viability (HT-29 tumoroids): most potent inhibitors
- rank as inhibitor of HT-29 cell viability (HT-29 cells): most potent inhibitors

Compound: COc1cccc2c1C(=O)c1c(O)c3c(c(O)c1C2=O)C[C@@](O)(C(=O)CO)C[C@@H]3O[C@H]1C[C@H](N)[C@H](O)[C@H](C)O1 [doxorubicin]
- IC50 (MCF-7/dox tumoroids; Homo sapiens, MCF7-DOX): 23100 ± 5350 nM
- IC50 (MCF-7 tumoroids; Homo sapiens, MCF7): 1310 ± 270 nM
- IC50 (MCF-7/dox cells; Homo sapiens, MCF7-DOX, 48 h): 4400 ± 280 nM
- fold more resistant than MCF-7 (MCF-7/dox cells; MCF-7/dox vs MCF-7 in monolayer): 24 fold
- IC50 (MCF-7 cells; Homo sapiens, MCF7, 48 h): 180 ± 8 nM

Compound: COc1cccc2c1C(=O)c1c(O)c3c(c(O)c1C2=O)C[C@@](O)(C(=O)CO)C[C@@H]3O[C@H]1C[C@H](N)[C@@H](O)[C@H](C)O1 [epirubicin (hydrochloride)]
- rank as inhibitor of HT-29 cell viability (HT-29 tumoroids): most potent inhibitors
- rank as inhibitor of HT-29 cell viability (HT-29 cells): most potent inhibitors
